Here are results for 99 compounds from PubChem BioAssay AID1985 (Southern Research Specialized Biocontainment Screening …, 2009).

SMILES strings stand for the structures. Where only a bound is given, the exact number is not on record here.

The assay has as its system S. Typhi PhoP-promoter GFP reporter, fluorescence, 4 h. The assay can be described thus: modified counter assay using GFP fluorescence, PhoP regulon inhibitor project, dose response (AID 1985).

As for `O=C(Cn1cnc2ccccc21)Nc1ccc(SC(F)F)cc1`, the IC50 was 78 µM.

Regarding `c1ccc2c(c1)CSc1sccc1C2=C1CCNCC1`, the IC50 is 106 µM.

In the case of `Clc1cc(Br)ccc1OCCCNCc1ccccc1`, the 50% inhibitory concentration (IC50) was 45.5 µM.

Turning to `Fc1ccc(Nc2nc(NCc3ccco3)c3ccccc3n2)cc1`, the 50% inhibitory concentration (IC50) is 15.1 µM.

In the case of `CCN1CCN(C2=C(NS(=O)(=O)c3ccc(Br)cc3)C(=O)c3ccccc3C2=O)CC1`, the IC50 is 47.4 µM.

With `Cc1cccc(Nc2nc(NCc3ccco3)c3ccccc3n2)c1`, the IC50 was 11 µM.

Take `Nc1nonc1-n1nnc(C(=O)N/N=C/c2cc(Br)ccc2O)c1CSC1=NCCS1`: the IC50 was 26 µM.

`COc1nccnc1NS(=O)(=O)c1ccc(N=Cc2c(C)[nH]n(-c3ccc(C)c(C)c3)c2=O)cc1`: the half-inhibitory concentration (IC50) is 114 µM.

For `CCCCn1c(=N)n(CC(=O)c2ccc(Br)s2)c2ccccc21`, the IC50 was 78.7 µM.

For the compound `O=C(Nc1ccncc1)Nc1ccc(Cl)cc1`, the IC50 was 40.5 µM.

In the case of `Cc1nnc(N/N=C/c2ccccn2)[nH]c1=O`, the half-inhibitory concentration (IC50) is 31.1 µM.

As to `Cc1ccccc1C(=O)Nc1cccc(C(=O)N/N=C/c2cc(Cl)cc([N+](=O)[O-])c2O)c1`, the IC50 was 33.8 µM.

Regarding `Cc1ccc(C(=O)N/C(=C\c2ccc(-c3ccc(Cl)cc3)o2)C(=O)NCCCN(C)C)cc1`, the IC50 is 85.8 µM.

`CN1CCN(c2ccc(NC(=O)c3ccc(-c4ccc(Br)cc4)o3)cc2)CC1`: the IC50 was 83.3 µM.

For `C#CCOCCOCCOCCNc1nc(N2CCN(C(=O)[C@H](Cc3ccc(O)cc3)n3cc([C@@H](N)CC(C)C)nn3)CC2)nc(N2CCN(C(=O)[C@H](Cc3cc4ccccc4[nH]3)n3cc([C@@H](N)CC(C)C)nn3)CC2)n1`, the IC50 was 85.1 µM.

Turning to `O=C(C[n+]1cccc(CNC(=O)c2ccc(OC(F)F)cc2)c1)Nc1ccc(SC(F)F)cc1`, the IC50 is 42.1 µM.

With `CN1CCC(OC(=O)c2ccc(Br)cc2)CC1`, the half-maximal inhibitory concentration (IC50) was 58.3 µM.

Turning to `CCn1cc(C(=O)NCCO)c(=O)c2cc(F)c(N3CCN(C)CC3)cc21`, the IC50 is 16.3 µM.

Regarding `O=C(Nc1ccc(Cl)cc1)Nc1ccc2c(c1)N1CCN=C1S2`, the IC50 is 57.1 µM.

Take `Cc1ccc(OCC(=O)N/N=C\c2c(C)[nH]n(-c3ccccc3)c2=O)c([N+](=O)[O-])c1`: the 50% inhibitory concentration (IC50) was 53.6 µM.

`ON=C1/C(=N\O)CC2(C/C1=N/O)OCCO2`: the half-inhibitory concentration (IC50) was 112 µM.

For the compound `O=C(NNc1nc2ccc(F)cc2s1)c1cccc(F)c1`, the IC50 is 148 µM.

Consider `CN1CCN(c2nc3cc(C(F)(F)F)ccc3n3cccc23)CC1`, for which the half-inhibitory concentration (IC50) is 101 µM.

`CCOC(=O)N1CCC(=NNc2ccnc3cc(Cl)ccc23)CC1`: the IC50 is 61.2 µM.

Turning to `c1cc2c(cc1C1CCCCC1)c1c3n2CCCNC3CCC1` (centres undefined), the IC50 was 39.9 µM.

With `C[n+]1c2n(c3ccccc31)N=C(c1ccc(-c3ccccc3)cc1)CS2`, the concentration for half-maximal inhibition (IC50) was 38 µM.

For `COc1ccc2c(C(=O)CCl)c[nH]c2c1`, the 50% inhibitory concentration (IC50) was 36.3 µM.

`C/C(Cn1nnc([N+](=O)[O-])n1)=N\NC(=O)c1ccccc1`: the IC50 is 149 µM.

With `COC(=O)C1C(O)C(C)C(O)C(C)(O)/C=C\C=C(/C)C(=O)Nc2c(C)c(OC(C)=O)c3c(c2O)C(=O)C(C)=C2OCOC(=C23)/C(C)=C/C(C)(O)C(O)C(C)C1O` (centres undefined), the IC50 is 33.1 µM.

In the case of `CCn1nc(C(=O)O)c(=O)c2cc3c(cc21)OCO3`, the IC50 is 103 µM.

Regarding `CN1CCC(OC(=O)c2cccc(Br)c2)CC1`, the IC50 was 120 µM.

As for `Cc1cccc2c1Sc1ccc(Cl)cc1CC2N1CCNCC1` (centres undefined), the IC50 is 32.7 µM.

For `CCCCCCCCCCOC(=O)Cn1c(COc2ccc(C)cc2)[n+](C)c2ccccc21`, the IC50 is 16.6 µM.

Turning to `Nc1nc(F)nc2c1ncn2[C@@H]1O[C@H](CO)[C@@H](O)[C@H]1O`, the IC50 is 3.76 µM.

For `CCCCCCCSc1cc(OC)c(CCN(C)C)cc1OC`, the 50% inhibitory concentration (IC50) was 83.5 µM.

For `N=c1c2c(n(Cc3ccc(Cl)c(Cl)c3)c3c1CCC3)CCCC2`, the IC50 is 80.1 µM.

Take `NC(N)=N/N=C/c1ccc(OCc2ccccc2Cl)cc1`: the 50% inhibitory concentration (IC50) is 33.4 µM.

On to `COc1cc(/C=N/N=C(N)N)ccc1OCc1ccc(Cl)cc1`, for which the concentration for half-maximal inhibition (IC50) was 36.7 µM.

For the compound `[O-][n+]1c2ccccc2cc2ccccc21`, the IC50 was 88 µM.

As for `CCc1ccc(-c2nn(-c3ccccc3)cc2CSC(=N)N)cc1`, the IC50 is 34.1 µM.

As for `c1ccc2oc(-c3csc(NCC4CCCO4)n3)cc2c1` (centres undefined), the IC50 is 142 µM.

For the compound `OC(CNCCc1ccc(C(F)(F)F)cc1)COC(c1ccccc1)c1ccccc1` (centres undefined), the IC50 was 82.9 µM.

In the case of `Cc1ccc(C(=O)Sc2cccccc2=O)cc1`, the IC50 was 1.97 µM.

For the compound `Cc1cc(C2CCCCC2)n(O)c(=O)c1`, the half-inhibitory concentration (IC50) is 20.9 µM.

Regarding `CN(C)c1ccc(/C=C/c2ccc3ccccc3[n+]2C)cc1`, the IC50 is 19.5 µM.

Consider `O=C(CCN1CCN(c2ccccc2)CC1)N/N=C/c1ccc([N+](=O)[O-])o1`, for which the IC50 is 70.2 µM.

`CCC(C)NC(=O)c1cn(CC)c2cc(N3CCN(C)CC3)c(F)cc2c1=O` (centres undefined): the half-inhibitory concentration (IC50) is 38.4 µM.

Consider `CCn1cc(C(=O)NCC(C)C)c(=O)c2cc(F)c(N3CCN(C)CC3)cc21`, for which the concentration for half-maximal inhibition (IC50) is 30.6 µM.

As for `CCCCCCCCCCCCCCCC[N+](C)(C)C`, the IC50 is 19.3 µM.

Consider `COc1c(N2CCN[C@H](C)C2)c(F)cc2c(=O)c(C(=O)O)cn(C3CC3)c12`, for which the IC50 is below 0.23 µM.

As to `COc1cc2c(cc1O)[C@H](Cc1ccc(Oc3cc(C[C@@H]4NCCc5cc(OC)c(O)cc54)ccc3O)cc1)NCC2`, the IC50 was 56.9 µM.

As to `CC(C)(c1ccccc1)c1ccc(OCCCN2CCNCC2)cc1`, the half-maximal inhibitory concentration (IC50) is 114 µM.

Turning to `COc1ccccc1N1CCN(Cc2ccc(O)c3ncccc23)CC1`, the IC50 was 72 µM.

In the case of `Cc1cc(OCCCCCN2CCCC2)ccc1Cl`, the 50% inhibitory concentration (IC50) is 112 µM.

With `Cc1c(N2C(=O)/C(=C3\C(=O)N(CC(=O)O)c4ccccc43)SC2=S)c(=O)n(-c2ccccc2)n1C`, the IC50 was 91.6 µM.

Take `O=c1c2ccccc2nc(-c2cccc(Cl)c2)n1O`: the 50% inhibitory concentration (IC50) was 113 µM.

On to `Cc1cc([N+](=O)[O-])nn1CC(=O)N/N=C/c1ccccc1O`, for which the IC50 was 35.4 µM.

For `O=C(/C=C/c1ccccc1)c1cc(Br)ccc(=O)c1O`, the IC50 is 51.1 µM.

For the compound `CC1CCC(C(C)C)C(OC(=O)Cn2c(-c3ccc(Cl)cc3)[n+](C)c3ccccc32)C1` (centres undefined), the half-maximal inhibitory concentration (IC50) was 144 µM.

Turning to `[O-][n+]1cccc2c(Br)cc(Br)c(O)c21`, the IC50 was 21.9 µM.

For the compound `O=C(Nc1ccc(Cc2ccncc2)cc1)c1ccc([N+](=O)[O-])o1`, the 50% inhibitory concentration (IC50) was 39.5 µM.

As to `OC(CNCCc1ccc(Cl)cc1)COc1cc(Cl)ccc1Cl` (centres undefined), the IC50 was 36.6 µM.

Regarding `O=C(N/N=C/c1ccc([N+](=O)[O-])s1)c1ccccc1Br`, the IC50 was 27.7 µM.

As to `COc1ccc(N2C(=O)CC(N3CC=C(c4ccccc4)CC3)C2=O)cc1` (centres undefined), the IC50 is 82.4 µM.

In the case of `CCN1/C(=C/c2cc[n+](C)cc2)C=Cc2cc(C)ccc21`, the IC50 was 78.6 µM.

As for `O=[N+]([O-])c1cc(F)c2cccnc2c1O`, the half-maximal inhibitory concentration (IC50) is 4.83 µM.

On to `Oc1c(Cl)cc(CN2CCCCC2)c2cccnc12`, for which the IC50 is 15 µM.

For the compound `C/C(=N/Nc1ccnc2cc(Cl)ccc12)c1ccc(N)cc1`, the 50% inhibitory concentration (IC50) was 55.3 µM.

Turning to `CN(C)C1C(=O)C(C(N)=O)=C(O)C2(O)C(=O)C3=C(O)c4c(O)cccc4C(C)(O)C3CC12` (centres undefined), the IC50 is 2.08 µM.

For `Nc1nc(Nc2ccccc2)nc2ccccc12`, the IC50 is 56.2 µM.

Consider `CCCCCc1ccc(OCCCC[n+]2ccccc2)c(CCCCC)c1`, for which the IC50 is 74.5 µM.

For `CC[C@@H](C)[C@H](CNC)NC[C@@H](Cc1cccc2ccccc12)NCCc1cccc(C(F)(F)F)c1`, the 50% inhibitory concentration (IC50) was 21.8 µM.

`CCOC(=O)c1c(-c2ccccc2)oc2ccc(OCC(O)CNCCN(C)C)cc12` (centres undefined): the IC50 was 80.2 µM.

For the compound `Fc1ccc(Nc2nnc(C(F)(F)F)s2)cc1Cl`, the 50% inhibitory concentration (IC50) is 38 µM.

`N/C(=N\OS(=O)(=O)c1ccccc1)c1cccnc1`: the IC50 is 9.86 µM.

Consider `O=C1CSC(=S)N1c1cccc(O)c1`, for which the IC50 is 72.8 µM.

On to `CN1CCN(C2=Cc3ccccc3Sc3cc(F)c(Cl)cc32)CC1`, for which the IC50 is 106 µM.

With `CCCCCOc1ccc(CSC2=NCCN2)cc1[N+](=O)[O-]`, the IC50 is 95.1 µM.

Turning to `COc1cccc(F)c1C(C[N+](=O)[O-])c1c(N)n(C)c(=O)n(C)c1=O` (centres undefined), the IC50 is 142 µM.

Consider `CCN1CCN(C(=O)c2cc3cc(F)ccc3[nH]2)CC1`, for which the half-inhibitory concentration (IC50) is 97.5 µM.

As for `COc1ccc(CNCCc2cccc(F)c2)c2ccccc12`, the IC50 was 81.7 µM.

Take `Cc1cccc2sc(N(CCCN(C)C)C(=O)COc3ccc(Cl)cc3)nc12`: the IC50 was 79 µM.

For the compound `CC/C(=N\Nc1ccnc2cc(Cl)ccc12)c1ccc(O)cc1`, the half-inhibitory concentration (IC50) was 148 µM.

With `O=C(N/N=C/c1c[nH]c2ccccc12)c1cccc(O)c1`, the IC50 is 130 µM.

As for `O=C(Oc1c(Cl)cc(Cl)c2cccnc12)c1cccc([N+](=O)[O-])c1`, the half-maximal inhibitory concentration (IC50) is 5.09 µM.

Regarding `O=[N+]([O-])c1cc([N+](=O)[O-])c2cccnc2c1Oc1ccccc1O`, the concentration for half-maximal inhibition (IC50) is 88 µM.

As for `COc1ccc(CCN2CCC(Nc3nc4ccccc4n3Cc3ccc(F)cc3)CC2)cc1`, the IC50 is 105 µM.

With `COc1ccc(CNCCC(c2ccccc2)c2ccc3c(c2)OCO3)cc1` (centres undefined), the concentration for half-maximal inhibition (IC50) is 149 µM.

Turning to `CC1CCc2c(N3CCC(O)CC3)c(F)cc3c(=O)c(C(=O)O)cn1c23` (centres undefined), the IC50 is 4.44 µM.

Regarding `O=C(Cc1ccccc1)NNC(=S)NC(=O)c1cccs1`, the IC50 was 37.5 µM.

On to `Cc1ccc(-n2c(-c3ccc(Br)cc3)c[n+]3c2CCc2ccc4cccnc4c2-3)cc1`, for which the 50% inhibitory concentration (IC50) is 97.5 µM.

Turning to `CC1CCc2cc(F)cc3c(=O)c(C(=O)O)cn1c23` (centres undefined), the IC50 is 9.57 µM.

As to `Cc1ccc(-c2c[n+](CC(=O)Nc3nc(-c4ccccc4)cs3)c3n2CCC3)cc1`, the 50% inhibitory concentration (IC50) is 90.4 µM.

For the compound `COc1cc([N+](=O)[O-])cc(/C=N/NC(=O)C(O)(c2ccccc2)c2ccccc2)c1O`, the IC50 is 57.5 µM.

In the case of `O=c1cc(-c2ccccc2)cc(-c2ccccc2)n1O`, the IC50 was 51.7 µM.

With `Cc1cc(NS(=O)(=O)c2ccc(NC(=O)Nc3cccc(Cl)c3)cc2)no1`, the half-inhibitory concentration (IC50) is 137 µM.

`COCCCNC(=S)NNC(=O)c1ccccn1`: the IC50 was 25.7 µM.

With `CNCCCN1c2ccccc2CCc2ccccc21`, the IC50 is 143 µM.

For `Nc1c2ccccc2nc2ccccc12`, the IC50 was 48 µM.
